Like-named read-outs stand apart in the source and are kept apart here. Marks after values point to notes of the source that are not given here.
Legend:
[1] = in vivo; cited from earlier work
[2] = Serum and tissue levels of pterostilbene by GC-MS; format: in vivo, rat; details: for concentration at 6 weeks: male, Wistar, rat, oral
Protocol: (§1) The experiment was conducted with twenty seven male Wistar rats with an initial body weight of 180±2 grams purchased from Harlan Ibérica (Barcelona, Spain), and took place in accordance with the University of the Basque Country's guide for the care and use of laboratory animals (Reference protocol approval CUEID CEBA/30/2010). The rats were individually housed in polycarbonate metabolic cages (Techniplast Gazzada, Guguggiate, Italy) and placed in an air-conditioned room (22±2° C.) with a 12 h light-dark cycle. After a 6-day adaptation period, rats were randomly divided in 3 dietary groups of nine animals each, and fed on a commercial obesogenic diet, high in sucrose (20.0%) and fat (22.5%) (Harlan Iberica, TD.06415). Pterostilbene was added to the diet. Rats in the pterostilbene groups received 15 mg/kg body weight/d (PT15 group) or 30 mg/kg body weight/d (PT30 group). All animals had free access to food and water. Food intake and body weight were daily measured.
Extraction of pterostilbene in the serum was according to published procedure (Kotani et al. 2003. J. Chromatogr. B. 788:269-275), with modifications. Serum from −80° C. storage was thawed on ice. To 50 μL serum was added 15 μL of β-glucuronidase (from E. coli, Type IX-A, Sigma-Aldrich, St. Louis, Mo., USA; 250 U/15 mL sodium phosphate buffer, 0.1M, pH 6.8) and 15 μL of sulfatase (from Abalone Entrails, Type VIII, Sigma-Aldrich, St. Louis, Mo., USA; 20 U/15 mL sodium phosphate buffer, 0.1M, pH 6.8), then vortex-mixed. This mixture was incubated for 20 hr at 37° C. while shaking at 750 rpm, cooled to room temperature, then partitioned with ethyl acetate (75 μL×3). The ethyl acetate layers were combined and dried under nitrogen. The dried sample was derivatized with 40 μL of N,O-bis[trimethylsilyl]-trifluoroacetamide: dimethyl-formamide (BSTFA:DMF, 1:1; Pierce Biotechnology, Inc., Rockford, Ill.), heated at 70° C. for 40 min and used for the analysis of pterostilbene by gas chromatography-mass spectrometry (GC-MS).
Pterostilbene in liver and muscle was extracted following published procedure (Hou et al. 2011. Planta Med. 77:455-460), with minor modifications. For liver, 100 mg fresh tissues were homogenized in 1 mL saline solution (0.9% NaCl in H2O). For muscle, 100 mg lyophilized tissue was homogenized in 1 mL sodium acetate buffer, pH 5. To the homogenates was added 300 μL enzyme solution (793.67 U/mL sulfatase and 666.66 U/mL β-glucuronidase in sodium acetate buffer, pH 5), vortex-mixed, and incubated at 37° C. for 16 hr while shaking at 750 rpm. To this mixture was added 100 μL of 0.1N HCl, then partitioned with ethyl acetate (800 μL×2). The ethyl acetate layers were combined, then dried under nitrogen. The dried sample was derivatized with BSTFA:DMF under the same conditions used for the analysis of pterostilbene in serum.
For the analysis of pterostilbene in epididymis and subcutaneous tissues, 100 mg of lyophilized tissue was homogenized in 300 μL of sodium acetate buffer, then sonicated for 30 min. To the homogenate was added 300 μl enzyme solution (793.67 U/mL sulfatase and 1333.33 U/mL β-glucuronidase in sodium acetate buffer, pH5) vortex-mixed, and incubated at 37° C., with shaking (750 rpm), for 16 hours. After incubation, 500 μl ice-cold acetonitrile was added, vortex-mixed for 1 min, then centrifuged at 800 rpm (Savant SpeedVac, model number SPD121P-120) for 20 min. The clear supernatant was collected, and again treated with 500 μl ice-cold acetonitrile, vortex-mixed and then centrifuged at 800 rpm for 20 min. The supernatant was then dried under a stream of nitrogen, then derivatized with BSTFA:DMF using the same conditions as in the analysis of pterostilbene in serum.
GC-MS analysis of pterostilbene in serum and tissues was performed using a J&W DB-5 capillary column (0.25 mm internal diameter, 0.25 μm film thickness, 30 m length; Agilent Technologies, Foster City, Calif.) on a JEOL GCMate II Instrument (JEOL USA Inc., Peabody, Mass.). […]

[3] = system: mice; details: mice fed 28 days at doses up to 3000 mg/kg body weight/d; cited from earlier work
[4] = system: male Wistar rats fed obesogenic diet high in sucrose and fat; experiment: Body weight, food intake, adipose tissue and muscle weights in rats fed an obesogenic diet with pterostilbene for 6 weeks; format: in vivo, rat; details: for decrease in total adipose tissue mass: versus control; for Adipose Tissue Weight, Epididymal / Adipose Tissue Weight, Interscapular Brown / Adipose Tissue Weight, Mesenteric / Adipose Tissue Weight, Perirenal / Adipose Tissue Weight, Subcutaneous / Adipose Tissue Weight, Total Fat Depots / Body Weight Increase / Food Intake / Final Body Weight: mean ± SEM; for Final Body Weight: n = 9, in g
Protocol: as §1
At the end of the 6-week experimental period, animals were sacrificed, under anaesthesia (chloral hydrate), by cardiac exsanguination. White adipose tissue from different anatomical locations (perirenal, epididymal, mesenteric and subcutaneous) and liver were dissected, weighed and immediately frozen.

[5] = PT15: 15 mg/kg body weight/d in diet
[6] = PT30: 30 mg/kg body weight/d in diet

COc1cc(/C=C/c2ccc(O)cc2)cc(OC)c1 [pterostilbene]
half-life [1]: approximately 2 hr
Muscle level of pterostilbene ([2]; PT15: 15 mg/kg body weight/d in diet, 6 weeks): Not Detected
concentration at 6 weeks ([2]; epididymis, PT15: 15 mg/kg body weight/d in diet, dry weight, n = 8, read-out: Epididymis level of pterostilbene): 10.9 ± 5.3 ng/g
concentration at 6 weeks ([2]; epididymis, PT30: 30 mg/kg body weight/d in diet, dry weight, n = 8, read-out: Epididymis level of pterostilbene): 30.7 ± 11 ng/g
concentration at 6 weeks ([2]; liver, PT15: 15 mg/kg body weight/d in diet, fresh weight, n = 8, read-out: Liver level of pterostilbene): 308 ± 117 ng/g
concentration at 6 weeks ([2]; liver, PT30: 30 mg/kg body weight/d in diet, fresh weight, n = 6, read-out: Liver level of pterostilbene): 726 ± 112 ng/g
concentration at 6 weeks ([2]; muscle, PT30: 30 mg/kg body weight/d in diet, dry weight, n = 8, read-out: Muscle level of pterostilbene): 9.1 ± 2 ng/g
concentration at 6 weeks ([2]; serum, PT15: 15 mg/kg body weight/d in diet, after glucuronidase/sulfatase hydrolysis, n = 8, read-out: Serum level of pterostilbene): 384 ± 54.7 ng/mL
concentration at 6 weeks ([2]; serum, PT30: 30 mg/kg body weight/d in diet, after glucuronidase/sulfatase hydrolysis, n = 6, read-out: Serum level of pterostilbene): 789 ± 246 ng/mL
concentration at 6 weeks ([2]; subcutaneous tissue, PT15: 15 mg/kg body weight/d in diet, dry weight, n = 7, read-out: Subcutaneous tissue level of pterostilbene): 20.5 ± 13.7 ng/g
concentration at 6 weeks ([2]; subcutaneous tissue, PT30: 30 mg/kg body weight/d in diet, dry weight, n = 7, read-out: Subcutaneous tissue level of pterostilbene): 35.4 ± 7.7 ng/g
toxic or adverse biochemical effects compared to controls [3]: no significant toxic or adverse biochemical effects
decrease in total adipose tissue mass ([4]; PT15: 15 mg/kg BW/d): 15.1%
Adipose Tissue Weight, Epididymal [4, 5]: 10.5 ± 0.9 g
Adipose Tissue Weight, Interscapular Brown [4, 5]: 1.01 ± 0.23 g
Adipose Tissue Weight, Mesenteric [4, 5]: 5.2 ± 0.4^ab g
Adipose Tissue Weight, Perirenal [4, 5]: 12.0 ± 1.1^ab g
Adipose Tissue Weight, Subcutaneous [4, 5]: 12.6 ± 1.2^b g
Adipose Tissue Weight, Total Fat Depots [4, 5]: 40.3 ± 3.0^b g
Body Weight Increase [4, 5]: 206 ± 9 g
Food Intake [4, 5]: 17.7 ± 0.5 g/day
Final Body Weight [4, 5]: 382 ± 5
decrease in total adipose tissue mass ([4]; PT30: 30 mg/kg BW/d): 22.9%
Adipose Tissue Weight, Epididymal [4, 6]: 10.5 ± 1.1 g
Adipose Tissue Weight, Interscapular Brown [4, 6]: 0.75 ± 0.05 g
Adipose Tissue Weight, Mesenteric [4, 6]: 4.8 ± 0.5^b g
Adipose Tissue Weight, Perirenal [4, 6]: 11.2 ± 1.0^b g
Adipose Tissue Weight, Subcutaneous [4, 6]: 12.7 ± 1.6^b g
Adipose Tissue Weight, Total Fat Depots [4, 6]: 36.6 ± 3.5^b g
Body Weight Increase [4, 6]: 200 ± 6 g
Food Intake [4, 6]: 17.5 ± 0.3 g/day
Final Body Weight [4, 6]: 382 ± 5
